What was measured:
Test in all cases: relative viability (nuclei count vs DMSO), 5 days (fraction); higher = more cells survive
ABC-1 = tested on: ABC-1
In short: (§1)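 Relative viability was taken as the ratio of nuclei in treated wells to nuclei in vehicle wells. Lung cancer cell lines in 1536-well plates received compounds by pin tool one day after seeding, either one drug alone or a fixed anchor-drug dose plus five library-drug doses (not always all listed) in √10 steps. Nuclei were counted on 4× images after 5 days of treatment, and values are medians of duplicate plates.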

CAL-12T = tested on: CAL-12T
In short: as §1

HCC-366 = tested on: HCC-366
In short: as §1

HCC-78 = tested on: HCC-78
In short: as §1

LC-2-ad = tested on: LC-2-ad
In short: as §1

LOU-NH91 = tested on: LOU-NH91
In short: as §1

LU99A = tested on: LU99A
In short: as §1

NCI-H1395 = tested on: NCI-H1395
In short: as §1

NCI-H1651 = tested on: NCI-H1651
In short: as §1

NCI-H1755 = tested on: NCI-H1755
In short: as §1

NCI-H1793 = tested on: NCI-H1793
In short: as §1

NCI-H1944 = tested on: NCI-H1944
In short: as §1

NCI-H2087 = tested on: NCI-H2087
In short: as §1

NCI-H2228 = tested on: NCI-H2228
In short: as §1

NCI-H2405 = tested on: NCI-H2405
In short: as §1

NCI-H3122 = tested on: NCI-H3122
In short: as §1

NCI-H460 = tested on: NCI-H460
In short: as §1

PC-3 [JPC-3] = tested on: PC-3 [JPC-3]
In short: as §1

RERF-LC-KJ = tested on: RERF-LC-KJ
In short: as §1

UMC-11 = tested on: UMC-11
In short: as §1

O=c1cc(N2CCOCC2)oc2c(-c3cccc4c3sc3ccccc34)cccc12 + C[C@]1(O)C[C@@H](c2nc(-c3ccc4ccc(-c5ccccc5)nc4c3)c3c(N)nccn32)C1 [Linsitinib] (partner 1 µM) gave a relative viability (ABC-1; first compound 0.01 µM) of 0.89, a relative viability (ABC-1; first compound 0.03162 µM) of 0.717 and a relative viability (ABC-1; first compound 0.1 µM) of 0.745. It also gave a relative viability (ABC-1; first compound 0.3162 µM) of 0.618, a relative viability (ABC-1; first compound 1 µM) of 0.586 and a relative viability (CAL-12T; first compound 0.01 µM) of 0.851. The relative viability (CAL-12T; first compound 0.03162 µM) was 0.809, the relative viability (CAL-12T; first compound 0.1 µM) was 0.842 and the relative viability (CAL-12T; first compound 0.3162 µM) was 0.873. It also gave a relative viability (CAL-12T; first compound 1 µM) of 0.879, a relative viability (HCC-366; first compound 0.01 µM) of 0.671 and a relative viability (HCC-366; first compound 0.03162 µM) of 0.656. For the same molecule, the relative viability (HCC-366; first compound 0.1 µM) was 0.797, the relative viability (HCC-366; first compound 0.3162 µM) was 0.662 and the relative viability (HCC-366; first compound 1 µM) was 0.625. It also gave a relative viability (HCC-78; first compound 0.01 µM) of 0.542, a relative viability (HCC-78; first compound 0.03162 µM) of 0.525 and a relative viability (HCC-78; first compound 0.1 µM) of 0.559. The relative viability (HCC-78; first compound 0.3162 µM) was 0.51, the relative viability (HCC-78; first compound 1 µM) was 0.53 and the relative viability (LC-2-ad; first compound 0.01 µM) was 0.975. The relative viability (LC-2-ad; first compound 0.1 µM) was 0.801, the relative viability (LC-2-ad; first compound 0.3162 µM) was 0.714 and the relative viability (LC-2-ad; first compound 1 µM) was 0.781. For the same molecule, the relative viability (LOU-NH91; first compound 0.01 µM) was 0.857, the relative viability (LOU-NH91; first compound 0.03162 µM) was 0.937 and the relative viability (LOU-NH91; first compound 0.1 µM) was 0.938. The relative viability (LOU-NH91; first compound 0.3162 µM) was 1.03, the relative viability (LOU-NH91; first compound 1 µM) was 0.936 and the relative viability (LU99A; first compound 0.01 µM) was 0.524. It also gave a relative viability (LU99A; first compound 0.03162 µM) of 0.628, a relative viability (LU99A; first compound 0.1 µM) of 0.589 and a relative viability (LU99A; first compound 0.3162 µM) of 0.518. It also gave a relative viability (LU99A; first compound 1 µM) of 0.627, a relative viability (NCI-H1395; first compound 0.01 µM) of 1.21 and a relative viability (NCI-H1395; first compound 0.03162 µM) of 1.11. For the same molecule, the relative viability (NCI-H1395; first compound 0.1 µM) was 1.03, the relative viability (NCI-H1395; first compound 0.3162 µM) was 1.12 and the relative viability (NCI-H1395; first compound 1 µM) was 1.2. It also gave a relative viability (NCI-H1651; first compound 0.01 µM) of 1.1, a relative viability (NCI-H1651; first compound 0.03162 µM) of 1.07 and a relative viability (NCI-H1651; first compound 0.1 µM) of 1.02. The relative viability (NCI-H1651; first compound 0.3162 µM) was 1.05, the relative viability (NCI-H1651; first compound 1 µM) was 0.912 and the relative viability (NCI-H1755; first compound 0.01 µM) was 1.04. It also gave a relative viability (NCI-H1755; first compound 0.03162 µM) of 0.98, a relative viability (NCI-H1755; first compound 0.1 µM) of 1.03 and a relative viability (NCI-H1755; first compound 0.3162 µM) of 1.03. It also gave a relative viability (NCI-H1755; first compound 1 µM) of 1.01, a relative viability (NCI-H1793; first compound 0.01 µM) of 0.809 and a relative viability (NCI-H1793; first compound 0.03162 µM) of 0.872. The relative viability (NCI-H1793; first compound 0.1 µM) was 0.517, the relative viability (NCI-H1793; first compound 0.3162 µM) was 0.813 and the relative viability (NCI-H1793; first compound 1 µM) was 0.68. It also gave a relative viability (NCI-H1944; first compound 0.01 µM) of 1.16, a relative viability (NCI-H1944; first compound 0.03162 µM) of 1.19 and a relative viability (NCI-H1944; first compound 0.1 µM) of 1.19. The relative viability (NCI-H1944; first compound 0.3162 µM) was 1.33, the relative viability (NCI-H1944; first compound 1 µM) was 1.16 and the relative viability (NCI-H2087; first compound 0.01 µM) was 1.04. For the same molecule, the relative viability (NCI-H2087; first compound 0.03162 µM) was 1.12, the relative viability (NCI-H2087; first compound 0.1 µM) was 0.899 and the relative viability (NCI-H2087; first compound 0.3162 µM) was 0.899. It also gave a relative viability (NCI-H2087; first compound 1 µM) of 0.985, a relative viability (NCI-H2228; first compound 0.03162 µM) of 0.571 and a relative viability (NCI-H2228; first compound 0.1 µM) of 0.539. The relative viability (NCI-H2228; first compound 0.3162 µM) was 0.904, the relative viability (NCI-H2228; first compound 1 µM) was 0.74 and the relative viability (NCI-H2405; first compound 0.01 µM) was 0.972. The relative viability (NCI-H2405; first compound 0.03162 µM) was 1.01, the relative viability (NCI-H2405; first compound 0.1 µM) was 1.01 and the relative viability (NCI-H2405; first compound 0.3162 µM) was 0.924. It also gave a relative viability (NCI-H2405; first compound 1 µM) of 0.955, a relative viability (NCI-H3122; first compound 0.01 µM) of 1.01 and a relative viability (NCI-H3122; first compound 0.03162 µM) of 0.977. For the same molecule, the relative viability (NCI-H3122; first compound 0.1 µM) was 1.12, the relative viability (NCI-H3122; first compound 0.3162 µM) was 1.03 and the relative viability (NCI-H3122; first compound 1 µM) was 0.944. The relative viability (NCI-H460; first compound 0.01 µM) was 0.764, the relative viability (NCI-H460; first compound 0.03162 µM) was 0.708 and the relative viability (NCI-H460; first compound 0.1 µM) was 0.739. The relative viability (NCI-H460; first compound 0.3162 µM) was 0.822, the relative viability (NCI-H460; first compound 1 µM) was 0.78 and the relative viability (PC-3 [JPC-3]; first compound 0.01 µM) was 0.967. It also gave a relative viability (PC-3 [JPC-3]; first compound 0.03162 µM) of 0.865, a relative viability (PC-3 [JPC-3]; first compound 0.1 µM) of 0.943 and a relative viability (PC-3 [JPC-3]; first compound 0.3162 µM) of 0.916. It also gave a relative viability (PC-3 [JPC-3]; first compound 1 µM) of 0.913, a relative viability (RERF-LC-KJ; first compound 0.01 µM) of 0.908 and a relative viability (RERF-LC-KJ; first compound 0.03162 µM) of 0.937. It also gave a relative viability (RERF-LC-KJ; first compound 0.1 µM) of 0.914, a relative viability (RERF-LC-KJ; first compound 0.3162 µM) of 0.869 and a relative viability (RERF-LC-KJ; first compound 1 µM) of 0.874. The relative viability (UMC-11; first compound 0.01 µM) was 1.07, the relative viability (UMC-11; first compound 0.03162 µM) was 1.03 and the relative viability (UMC-11; first compound 0.1 µM) was 1.01. It also gave a relative viability (UMC-11; first compound 0.3162 µM) of 1.02 and a relative viability (UMC-11; first compound 1 µM) of 1.06.

From the supplement of paper PMC10307832
